Read-outs that look alike come from different tables or passages of the source.
Tests used:
GM-CSF induced pSTAT5 = GM-CSF induced pSTAT5 assay in CellSensor irf1-bla TF-1 cells; type: cell-based; details: Homo sapiens, GM-CSF 1 ng/mL, read-out: Cellular selectivity (GM-CSF induced pSTAT5)
Description: The CellSensor irfl-bla TF-1 cell line (LifeTechnologies, K1657) was cultured in RPMI 1640 Medium (Invitrogen 72400-047), 10% Fetal Bovine Serum (Invitrogen, 26400044), 1 mM Sodium pyruvate (Life Technologies, 11360039), 1% MEM NEAA (Life Technologies, 11140-035), 2 ng/ml of human recombinant GM-CSF (Fisher, PHC2015), 1% Penicillin/Streptomycin (Life Technologies, 15140-122) and 5 µg/ml of Blasticidin (ThermoFisher, A1113903).
The cell line was seeded in a T75 flask at 13×10^6 cells/50 mL in starvation medium (Opti-MEM™ I Reduced Serum Medium, no phenol red (Life Technologies, 11058-021), 1 mM Na pyruvate (Life Technologies, 11360039), 1% MEM NEAA (Life Technologies, 11140-035), and 1% Penicillin/Streptomycin (Life Technologies, 15140-122)) for 16 hours at 37° C. under 5% CO2 the day before the assay.
For the assay, CellSensor irfl-bla TF-1 cells were seeded at 30 000 cells/32 μL (starvation medium)/well in a 384-well plate.
Compounds were added on the cells in 4 μL (starvation medium)/well at 10× the final concentration. They were incubated for 30 minutes at 37° C.
Human recombinant carrier-free GM-CSF (ThermoFisher, ref PHC2015) was added to the wells in 4 μL (starvation medium)/well at 10×. The final concentration was 1 ng/mL. Control wells without GM-CSF treatment were added. Plates were incubated for 5 hours at 37° C.
6× LiveBlazer-FRET substrate (Invitrogen, K1085) was added to the wells at 8 μL/well. The substrate was prepared shortly before use by mixing 6 μL of solution A and 60 μL of solution B to 934 μL of solution C. Plates were incubated for 2.5 hours at room temperature in the dark. The plates were read on an Envision (Perkin Elmer) with an excitation at a wavelength of 409 nm and two wavelengths for the emission 520 nm and 450 nm. The ratio between the […] emission was used to calculate the IC50s.
The IC50 for the inhibition of pSTAT5 was calculated with the XLfit software using the 4 Parameter Logistic Model or Sigmoidal Dose-Response Model (model 205).

[1] = test system: anti-CD40-induced inflammatory bowel disease (IBD); assay: Anti-CD40-induced mouse model of inflammatory bowel disease (IBD); type: in vivo, RAGN12 mice; details: for colon histopathology scores / colon weight-to-length ratio: 7-day anti-CD40 IBD model
Description: This study was conducted in accordance with the Inotiv Boulder test facility standard operating procedures (SOPs), the World Health Organization Quality Practices in Basic Biomedical Research guidelines, and in compliance with all state and federal regulations, including USDA Animal Welfare Act 9 CFR Parts 1-3. Federal Register 39129, Jul. 22, 1993. This study was conducted in accordance with The Guide for the Care & Use of Laboratory Animals (8th Edition) and therefore in accordance with all Inotiv Boulder IACUC approved policies.
Prior to the start of the study, 6-7 week old, RAGN12 mice (Taconics) were acclimated for approximately 4 days. On study day −1, mice were weighed and randomized into treatment groups based on body weight. On study day 0, 200 μg of anti-CD40 monoclonal antibody (BioXcell) was administered intraperitoneally to induce disease. Test articles were dosed orally BID (the exception was the known TYK2 inhibitor at 3 mpk, which was dosed QD, with vehicle administered as the second daily dose). Bodyweight was measured daily on study days 1-6.
On day 7, the study was terminated; mice were anesthetized with Isoflurane and bled to exsanguination followed by cervical dislocation. The entire colon was removed, measured, and weighed. The plasma (for PK) and colon (for histology and cytokine measurements) samples were collected. Histopathology samples were evaluated for edema, inflammation (extent of macrophage, lymphocyte and polymorphonuclear (PMN) cell infiltration), gland loss, erosion, and hyperplasia.
Overall efficacy of test articles is based on a ratio of colon weight to length, and colon histopathology (FIGS. 6A and 6B). Additional readouts of the model support activity of an exemplary compound in IBD (FIG. 6C-6I).

IFNα/pSTAT5 = assay: Whole blood potency (IFNα/pSTAT5), human; type: cell-based; details: CD4+ T cells, read-out: Cellular Whole Blood Potency IC50 (IFNα/pSTAT5), Human
Description: Heparinized human whole blood (5 different donors) was acquired from the Stanford Blood Center and used fresh for each experiment. Whole blood was plated (90 μl per well) into a 96-well assay plate immediately prior to initiation of the assay.
Test compounds were diluted serially (3-fold) in DMSO to generate a series of 10 concentrations (at 200× final assay concentrations). […] DMSO dilutions were diluted 10-fold in PBS to generate 20× final assay concentrations.
Pre-incubation of compounds and whole blood was initiated by adding 5 μl of the compound dilutions to the assay plates and incubated for 30 min at 37° C. Blood was then stimulated by the addition of IFN-α (5 μl of 200 ng/ml) (Miltenyi #130-093-873) followed by incubation at 37° C. for 15 min. Assays were terminated by the addition of Lyse/Fix (BD Biosciences #558049) (60 μl treated blood+1 ml Lyse/Fix) and incubated for 10 min. Cells were diluted 1:1 with Wash Buffer (PBS+0.3% BSA) and centrifuged to pellet white blood cells. Fixed cells were washed once with Wash Buffer and the pelleted cell plate was frozen at −80° C.
Cells were thawed and washed once with Wash Buffer prior to the addition of the α-CD3-Blue520 antibody (2 μg/ml final concentration; Biolegend #300481) and incubated for 30 min. Cells were washed twice in Wash Buffer followed by permeabilization in 100% cold methanol for 15 min. Cells were washed three times in Wash Buffer prior to the addition of the α-CD4-APC antibody ([…] final concentration; Biolegend #300514) and the α-pSTAT5-PE antibody (0.67 μg/ml final concentration; Biolegend #936904) and incubated for 90 min. Cells were washed twice in Wash Buffer and resuspended in 90 μl Wash Buffer prior to running on a LSRII flow cytometer (BD Biosciences, San Jose, CA). Total T cells (CD3+) and CD4+ cells were gated, and the Mean Fluorescence Intensity (MFI) was determined from the PE channel to quantify pSTAT5 signal.
The pSTAT5 MFI in the CD4+ gate was used to calculated Activity (% Control):
Data were then analyzed by non-linear regression to determine inhibitory potencies […] using the following equation in Collaborative Drug Discovery (Burlingame, CA): […]
where X: log concentration in Molar; Y: Activity (% Control); Top: curve top plateau; Bottom: curve bottom plateau, fixed range from −20-20%; Hill Slope: unconstrained. Potency data are reported as pIC50 or pIC90 values ±SD. IC90 values are defined from the fitted IC50 values: […]. FIG. 5A.
Exemplary compounds of the invention, compounds 1 and 2 were compared in this assay.

Compound	IC50 (GM-CSF induced pSTAT5)	colon histopathology scores [1]	colon weight-to-length ratio [1]	IC50 (IFNα/pSTAT5)	IC50 (IFNα/pSTAT5; Homo sapiens, CD4+ T)	colon weight:length, efficacious dose ([1]; anti-CD40 IBD model)
C[C@@H](c1ccc(Nc2cc(Nc3ncc(F)cc3S(C)(=O)=O)ncn2)nc1)N1CC2(COC2)C1 [Compound 2, (S)—N^4-(5-(1-(2-oxa-6-azaspiro[3.3]heptan-6-yl)ethyl)pyridin-2-yl)-N^6-(5-fluoro-3-(methylsulfonyl)pyridin-2-yl)pyrimidine-4,6-diamine]	> 10 µM	inhibition	inhibition	0.0158 µM	~0.029 µM	
C[C@@H](c1ccc(Nc2cc(Nc3ncccc3S(C)(=O)=O)ncn2)nc1)N1CC2(COC2)C1 [Compound 1, (S)—N^4-(5-(1-(2-oxa-6-azaspiro[3.3]heptan-6-yl)ethyl)pyridin-2-yl)-N^6-(3-(methylsulfonyl)pyridin-2-yl)pyrimidine-4,6-diamine]	4 to 10 µM	inhibition	inhibition	0.0291 µM	~0.0158 µM	200 mpk
